According to PMC11666850, “Development and evaluation of deuterated [^18F]JHU94620 isotopologues for the non-invasive assessment of the cannabinoid type 2 receptor in brain” (EJNMMI Radiopharmacy and Chemistry, 2024):

Biological target: T1, CB2R (Rattus norvegicus, UniProt Q9QZN9)
T1 construct: from tissue; host or cells: rat spleen: cryosections in vitro, and spleen of living Wistar rats in PET
T1 sequence (Q9QZN9 1-360): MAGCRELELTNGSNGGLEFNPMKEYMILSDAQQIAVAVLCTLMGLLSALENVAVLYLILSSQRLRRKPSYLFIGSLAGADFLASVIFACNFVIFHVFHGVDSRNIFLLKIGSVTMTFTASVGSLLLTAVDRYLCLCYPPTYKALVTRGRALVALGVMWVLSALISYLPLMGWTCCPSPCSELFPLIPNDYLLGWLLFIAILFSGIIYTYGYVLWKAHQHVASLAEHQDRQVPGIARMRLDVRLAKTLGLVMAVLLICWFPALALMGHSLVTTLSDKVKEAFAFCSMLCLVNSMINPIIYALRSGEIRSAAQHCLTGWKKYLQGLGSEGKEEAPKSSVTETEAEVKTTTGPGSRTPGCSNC
Assay type: in vivo
Settings: male, Wistar, rat, in vivo
Experimental: The dynamic biodistribution of the radiotracer in the lower body of rats was assessed by small animal PET (Nanoscan, Mediso, Hungary) over 60 min with a subsequently T1-weighted MR. Anaesthetized (2% isoflurane, carrier gas mixture of 40% air and 60% O2) male Wistar rats (body weight: 205–308 g, age: 8–10 weeks, no gender-specific differences were taken into account) were kept during imaging on a heated animal bed to sustain body temperature and were pretreated with vehicle (DMSO:Kolliphore EL:0.9% saline, 1:2:7), JHU94620-d8 (1.5 mg kg^−1 bodyweight) or with GW405833 (5 mg kg^−1 bodyweight) 5 min prior tracer application ([^18F]JHU94620-d8: 7.7–28.2 MBq, 0.4 to 3.2 nmol kg^−1 bodyweight), whereby all injections were administered intravenously. For the evaluation of the hCB2R-specific binding of the radiotracer in the brain, female Wistar rats (n = 6, 253–269 g, age: 8 month) were used carrying stereotactically injected constructs of AAV2/7-CaMKII0.4-intron-hCB2R(D80N) in the right striatum and AAV2/7-CaMKII0.4-intron-3flag-eGFP in the control/contralateral striatum (Vandeputte et al. [2011]). 21–26 MBq corresponding to 0.2 to 2.0 nmol kg^−1 bodyweight radiotracer were injected, whereas in displacement studies 5 mg kg^−1 bodyweight GW405833 was administered 20 min after the radiotracer (each n = 3). The PET scans were performed six months after the stereotactic injections of the AAV2/7-constructs.
The acquisitions were performed in normal mode and a coincidence mode 1–5. For subsequent dynamic reconstructions list mode data were sorted into sinograms (12 × 10 s, 6 × 30 s, 5 × 60 s and 10 × 300 s). The frames were reconstructed by Ordered Subset Expectation Maximization applied to 3D (OSEM3D) sinograms corrected for decay and attenuation (4 iterations, 6 subsets and a voxel size of 0.4 mm^3) with the Nucline software v2.01 (Mediso, Budapest, Hungary). Analyses of reconstructed studies were performed with PMOD software (v4.205, PMOD Technologies LLC, Fällanden, Switzerland) and results are expressed in standardized uptake values (SUVs) or normalized to a reference region (SUVr).

[2H]C([2H])([18F])C([2H])([2H])C([2H])([2H])C([2H])([2H])n1c(C)c(C)s/c1=N\C(=O)C1C(C)(C)C1(C)C [[^18F]JHU94620-d8]
SUVr(spleen-to-blood) at late time points: about 1.5 | spleen SUVmean at late time points: about 0.5 SUVmean
